Measurements as given in patent publication US20250319213A1, “FUNCTIONALIZED BISAMINOTHIOL DERIVATIVES, COMPLEXES WITH THESE BISAMINOTHIOL DERIVATIVES AND USE OF SAID COMPLEXES AS DIAGNOSTICS AND THERAPEUTICS” (ABX ADVANCED BIOCHEMICAL COMPOUNDS – BIOMEDIZINISCHE …, priority 2022, published 2025).

What was measured:
[1] = target: T1, PSMA (Homo sapiens, UniProt Q04609); assay: Competitive binding affinity on LNCaP cells against [68Ga]Ga-PSMA-11 (competition); details: natRe complex of the listed compound, 1 nM [68Ga]Ga-PSMA-11, 1 h 37° C., mean ± SEM
T1 construct: host or cells: LNCaP human prostate carcinoma cells
T1 sequence (Q04609 whole entry): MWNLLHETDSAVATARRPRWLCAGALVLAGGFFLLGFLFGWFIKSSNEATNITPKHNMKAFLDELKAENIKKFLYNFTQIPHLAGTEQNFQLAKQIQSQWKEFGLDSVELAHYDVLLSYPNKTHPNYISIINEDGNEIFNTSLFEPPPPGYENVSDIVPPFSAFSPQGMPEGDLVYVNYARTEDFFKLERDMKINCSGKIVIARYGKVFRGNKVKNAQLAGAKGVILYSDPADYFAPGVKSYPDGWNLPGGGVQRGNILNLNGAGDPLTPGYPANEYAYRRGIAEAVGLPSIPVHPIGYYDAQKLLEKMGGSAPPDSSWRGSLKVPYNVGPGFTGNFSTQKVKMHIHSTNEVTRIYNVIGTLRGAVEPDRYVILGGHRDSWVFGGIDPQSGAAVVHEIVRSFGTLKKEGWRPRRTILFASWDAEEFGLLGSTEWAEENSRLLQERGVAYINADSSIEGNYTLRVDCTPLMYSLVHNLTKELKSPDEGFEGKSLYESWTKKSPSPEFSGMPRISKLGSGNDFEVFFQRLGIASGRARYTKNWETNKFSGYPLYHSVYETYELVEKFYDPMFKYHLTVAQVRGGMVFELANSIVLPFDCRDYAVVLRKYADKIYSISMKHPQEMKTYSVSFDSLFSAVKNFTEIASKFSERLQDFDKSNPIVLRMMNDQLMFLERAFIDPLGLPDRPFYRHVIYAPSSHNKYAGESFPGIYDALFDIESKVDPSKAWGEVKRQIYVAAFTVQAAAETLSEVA
Method: (§1) Competition, saturation and internalization assays were assessed using the high PSMA expressing human prostate carcinoma cell line LNCaP (ATCC® CRL-1740). The cells were grown as monolayer at 37° C. in a humidified atmosphere comprising 5% CO2 and 95% air in RPMI medium including 10% FCS (Merck KGAA, Germany). After washing the confluent cells twice with phosphate buffered saline (PBS) and detaching them with trypsin/EDTA (0.05%/0.02%), the cells were suspended in medium and counted (Casy TT, Omni Life Science, Germany).
For competition monolayer of LNCaP cells were seeded, 1×10^5 cells/well in 24-well plates two days before the assay. On the day of competition, after aspirating the medium, 100 μL of PBS and, for competition 100 μL of different concentrations of the test compound in PBS (10^−12 to 10^−6 M) were pipetted into the wells, simultaneously to 400 μL of medium including 1 nM of [^68Ga]Ga-PSMA-11.
(§2) After 1 hour of incubation at 37° C. both for competition and saturation samples, the supernatants were aspirated and the cells washed twice with cold PBS. The cell lawn was lysed with 500 μL NaOH/SDS (0.1 M/1%) by shaking for 3 to 5 minutes. After transferring the lysates into measuring tubes, the activity of the samples was measured in a gamma counter (2480 Automatic Gamma Counter Wizard 2, Perkin Elmer, USA).
(§3) The half maximal inhibitory concentrations (IC50) and the dissociations constants (Kd) were calculated by fitting the data using a nonlinear curve-fitting program (GraphPad Prism 9). With the Kd value of [^68Ga]Ga-PSMA-11 on LNCaP and the known concentration of [^68Ga]Ga-PSMA-11 in the competition assay the inhibition constants (Ki) was also determined with the curve-fitting program.

[2] = target: T1, PSMA; assay: Direct binding affinity on LNCaP cells (saturation); details: [99mTc]TcO complex of the listed compound, saturation 0.3-40 nM, 1 h 37° C., mean ± SEM, read-out: Kd [nM] of [99mTc]TcO-complexes
Method: as §1
For saturation monolayer of LNCaP cells were seeded, 5×10^4 cells/well in 48-well plates two days before the assay. On the day of saturation, after aspirating the medium, 160 μL of medium (for ^99mTc-labeled radioligand with D-mannitol (1 mg/mL)) were pipetted per well, for non-specific binding samples including 100 μM 2-PMPA. After preincubation for 5 min, 40 μL activity ([^68Ga]Ga-PSMA-11 or ^99mTc-labeled radioligand solution) were added (total volume/well: 200 μL). Eight concentrations ranged between 0.3 and 40 nM.
as §2, §3

[3] = system: subcutaneous LNCaP tumor xenografts; assay: SPECT/CT and PET/CT imaging in LNCaP tumor bearing mice; assay type: in vivo; details: LNCaP xenograft model
Method: A prostate cancer xenograft model was generated via subcutaneous injection of human LNCaP cells into the right shoulder of 8-12 week-old male nude mice (Rj:NMRI-Foxn1^nu/nu, Janvier Labs, Le Genest-Saint-Isle, France). Imaging studies were performed when tumors reached a diameter of >6 mm. General anesthesia was induced and maintained with inhalation of 10% (v/v) desflurane in […] oxygen/air. During anesthesia, animals were continuously warmed at 37° C.
Small animal single-photon emission computed tomography (SPECT) was performed using the nanoSPECT/CT scanner (Mediso Medical Imaging Systems) equipped with an APT63 aperture consisting of four M3 multi-pinhole collimators. Each animal received 30 MBq of ^99mTc-labeled compounds delivered in 0.2 mL of Dulbecco's phosphate-buffered saline as a single intravenous injection through a tail vein catheter. Photon emission was recorded using frame times of 60 s (1 h scan: 40-70 min), 90 s (4 h scan, 3.5-4.5 h), and 320 s (20 h scan, 18.5-21.5 h), and binned simultaneously within the 20% energy window of the 140.5 keV photopeak. With each SPECT scan, a corresponding CT image was recorded and used for anatomical referencing and attenuation correction. SPECT images were reconstructed using the Tera-Tomo™ three-dimensional (3D) algorithm at normal range with a voxel size of 0.4 mm and applying corrections for scatter attenuation, and decay.
Small animal positron emission tomography (PET) was performed using the nanoPET/CT scanner (Mediso Medical Imaging Systems). Each animal received 10 MBq of the radiolabeled reference compound [^68Ga]Ga-PSMA-11 delivered in Dulbecco's phosphate-buffered saline as a single intravenous injection through a tail vein catheter. Emission of the 511 keV annihilation photons was recorded continuously at a coincidence mode of 1:5 for 60 min following radiotracer injection. With each PET scan, a corresponding CT image was recorded and used for anatomical referencing and attenuation correction. Three-dimensional list mode data were binned using the 400-600 keV energy window. PET images of the 40-60 min time frame were reconstructed using the Tera-Tomo™ three-dimensional (3D) algorithm with a voxel size of 0.4 mm and applying corrections for random events, scatter, attenuation, and decay.
Three-dimensional VOIs were created applying fixed threshold for delineation of tumor (30%), muscle (0%); and kidneys (39%). Standardized uptake values (SUV=[MBq detected activity/mL tissue]/[MBq injected activity/g body weight], mL/g) were determined and reported as max SUV (VOI-maximum). Time-activity curves were generated and further analyzed using Prism (GraphPad Software, San Diego CA, USA).

[4] = Product stability in mouse plasma (in vitro); assay type: in vitro ADME; details: mean ± SD (n = 3-4), normalized to fraction immediately after preparation
Method: (§4) In brief, the freshly produced ^99mTc-labeled radioligand solution (10-20 MBq, 20-100 μL) was added to the respective medium (200-400 μL), vortexed quickly, and shook gently at the respective temperature mentioned below. At certain time points, samples were taken, diluted, and measured by radio-RP-HPLC. Hereby, investigation of plasma samples included protein precipitation with the 4-fold volume of an ice-cold mixture of methanol/water (4/1, v/v), intensive shaking (5 min) and centrifugation (14,000 rpm, 10 min), before inspection of the supernatant. In addition, the recovery of extracted activity was calculated after activity measurement of supernatant and residue by a gamma counter.

[5] = Product stability in DPBS at 25° C.; assay type: physicochemical; details: DPBS (+Ca2+, +Mg2+), mean ± SD, normalized to fraction immediately after preparation
Method: as §4

[6] = Determination of log D values (shake-flask, octanol/medium); assay type: physicochemical; details: for LogD (shake-flask, octanol/medium) Na-phosphate pH 7.4: 4.4 mM Na2HPO4, 2.2 mM NaH2PO4, pH 7.4
Method: Log D values were determined for different media by the shake-flask method (Andrés, A.; Rosés, M.; Ràfols, C.; Bosch, E.; Espinosa, S.; Segarra, V.; Huerta, J. M. Setup and validation of shake-flask procedures for the determination of partition coefficients (log D) from low drug amounts. Eur. J. Pharm. Sci. 2015, 76, 181-191.). In preparation, octanol was saturated with each of the used buffer solutions and vice versa. To 3 mL of octanol, together with 3 mL of buffer solution 200-300 μL of the ^99mTc-labeled radioligand (15-25 MBq, samples in triplicate) were added and shaken vigorously for 30 min. After centrifugation at 9,000 rpm for 15 min, samples were taken from both separated phases and measured by gamma-counter. Log D values were calculated as the ratio of radioactivity determined in octanol and aqueous phase.

[7] = Product stability at room temperature (without addition of any media); assay type: physicochemical; details: no media, radio-RP-HPLC
Method: as §4

[8] = system: LNCaP cells; assay: Determination of the internalization (surface binding and internalized activity); assay type: cell-based, human; details: 1 h
Method: as §1
For internalization LNCaP and PC3 cells were seeded, 1×10^5 cells/well in 24-well plates two days before the assay. On the day of internalization, after aspirating the medium, 100 μL of PBS and, for non-specific binding samples, 100 μL 2-PMPA (100 μM) were pipetted into the wells, followed by 400 μL medium including activity. The concentration of the ^99mTc-labeled radioligands was 25 nM. After 1 h of incubation at 37° C. and adjacent well plates at 4° C., the supernatant was removed and the cells washed with cold PBS. Surface-bound activity was stripped with 4° C. cold acid-wash buffer (0.2 M glycine, pH 2.8) for 5 min. The acid wash buffer was transferred from the plate wells to measuring tubes, as was the PBS buffer after washing once (binding on the surface). Cytosolic activity was determined after treatment with cell lysis buffer (0.1 M NaOH/1% SDS). Cell surface and cytosolic activity were measured separately in a gamma counter. Determination of protein content from cell lysate was performed using a spectrophotometer (NanoDrop, Thermo Fisher Scientific, USA) at an absorbance of 280 nm.

[9] = as early as 1 hour after injection

Ki [1] | Kd [2] | Fraction of radioligand after 6 h in mouse plasma at 37° C. [4] | Fraction of radioligand in DPBS at 25° C., 1 h [5] | Fraction of radioligand in DPBS at 25° C., 2 h [5] | Fraction of radioligand in DPBS at 25° C., 4 h [5] | Fraction of radioligand in DPBS at 25° C., 20 h [5] | LogD (shake-flask, octanol/medium) Na-phosphate pH 7.4 [6] | LogD (shake-flask, octanol/medium) PBS 0.1M pH 7.4 [6] | LogD (shake-flask, octanol/medium) TRIS buffer 0.1M pH 7.4 [6] | SMILES | other results
 |  | 98.3 ± 1.1% | 89.9 ± 2.3% | 97.7 ± 2.3% | 80.7 ± 12.0% | 89.2 ± 2.7% | −2.08 ± 0.01 | −2.16 ± 0.03 | −2.16 ± 0.02 | CC1(C)CN(CCCCC(=O)N[C@@H](Cc2ccccc2)C(=O)N[C@@H](Cc2ccccc2)C(=O)N[C@H](CCCCNC(=O)CCCCCCC(=O)NCCCC[C@H](NC(=O)N[C@@H](CCC(=O)O)C(=O)O)C(=O)O)C(=O)O)CC[N]2CC(C)(C)[S][99Tc]2(=[O])[S]1 (stereo partly shown) [[^99mTc]TcO-2] | 
 |  | 98.5 ± 0.8% | 98.2 ± 1.9% | 97.3 ± 3.6% | 98.4 ± 1.0% | 89.1 ± 7.4% | −1.93 ± 0.01 | −2.07 ± 0.01 | −2.08 ± 0.02 | CC1(C)CN(CCCCC(=O)N[C@@H](CCCCNC(=O)CCCCCCC(=O)NCCCC[C@H](NC(=O)N[C@@H](CCC(=O)O)C(=O)O)C(=O)O)C(=O)O)CC[N]2CC(C)(C)[S][99Tc]2(=[O])[S]1 (stereo partly shown) [[^99mTc]TcO-3] | Fraction of radioligand at indicated time point after preparation, 0 h ([7]; 0 h): 96%; Fraction of radioligand at indicated time point after preparation, 2 h ([7]; 2 h): 93%; Fraction of radioligand at indicated time point after preparation, 4 h ([7]; 4 h): 92%; Fraction of radioligand at indicated time point after preparation, 6 h ([7]; 6 h): 91%; % Internalization, 37° C. ([8]; 37° C.): 35.8%; Internalization, 4° C. (% AD/mg Protein) ([8]; cytosolic activity, 25 nM radioligand, 4° C., mean ± SEM): 0.7 ± 0.2 % AD/mg Protein; Internalization, 37° C. (% AD/mg Protein) ([8]; cytosolic activity, 25 nM radioligand, 37° C., mean ± SEM): 1.0 ± 0.3 % AD/mg Protein; Binding, 4° C. (% AD/mg Protein) ([8]; surface-bound activity, 25 nM radioligand, 4° C., mean ± SEM): 2.1 ± 1.2 % AD/mg Protein; Binding, 37° C. (% AD/mg Protein) ([8]; surface-bound activity, 25 nM radioligand, 37° C., mean ± SEM): 1.8 ± 0.3 % AD/mg Protein

The next lines start with the compound.

SMILES | Ki [1] | Kd [2] | Fraction of radioligand after 6 h in mouse plasma at 37° C. [4] | Fraction of radioligand in DPBS at 25° C., 1 h [5] | Fraction of radioligand in DPBS at 25° C., 2 h [5] | Fraction of radioligand in DPBS at 25° C., 4 h [5] | Fraction of radioligand in DPBS at 25° C., 20 h [5] | LogD (shake-flask, octanol/medium) Na-phosphate pH 7.4 [6] | LogD (shake-flask, octanol/medium) PBS 0.1M pH 7.4 [6] | LogD (shake-flask, octanol/medium) TRIS buffer 0.1M pH 7.4 [6] | other results
CC(C)(S)CNCCN(CCCCC(=O)N[C@@H](Cc1ccccc1)C(=O)N[C@@H](Cc1ccccc1)C(=O)N[C@@H](CCCCNC(=O)CCCCCCC(=O)NCCCC[C@H](NC(=O)N[C@@H](CCC(=O)O)C(=O)O)C(=O)O)C(=O)O)CC(C)(C)S [Compound 1] | 4.8 ± 3.4 nM | 15.5 ± 3.2 nM |  |  |  |  |  |  |  |  | 
CC(C)(S)CNCCN(CCCCC(=O)N[C@@H](CCCCNC(=O)CCCCCCC(=O)NCCCC[C@H](NC(=O)N[C@@H](CCC(=O)O)C(=O)O)C(=O)O)C(=O)O)CC(C)(C)S [Compound 3] | 7.3 ± 1.6 nM | 15.8 ± 9.1 nM |  |  |  |  |  |  |  |  | 
CC(C)(S)CNCCN(CCCCC(=O)N[C@@H](CCC(=O)O)C(=O)N[C@@H](CCC(=O)O)C(=O)N[C@H](CCCCNC(=O)CCCCCCC(=O)NCCCC[C@H](NC(=O)N[C@@H](CCC(=O)O)C(=O)O)C(=O)O)C(=O)O)CC(C)(C)S [Compound 5] | 9.3 ± 0.9 nM | 7.2 ± 1.7 nM |  |  |  |  |  |  |  |  | pharmacokinetic properties and organ distribution compared to the prior art [3]: faster pharmacokinetic properties and a more favorable organ distribution; tumor-to-kidney ratio [3, 9]: High; tumor-to-muscle ratio [3, 9]: High
